“Also recorded” adds a separate entry of the source.
Test system: JCV-infected human astrocytes
Test: ^3H-FLT uptake in uninfected and JCV-infected human astrocytes (TK1 activity)
Type: cell-based
Settings: JCV-infected astrocytes compared to uninfected astrocytes; uptake as a measure of TK1 activity
Description: The activity of TK1 in uninfected and JCV-infected human astrocytes was determined by analyzing the cellular uptake of ^3H-FLT, a radiolabeled TK1 substrate.

Cc1cn([C@H]2C[C@H](F)[C@@H](CO)O2)c(=O)[nH]c1=O [^3H-FLT]
^3H-FLT uptake: higher in JCV-infected astrocytes as compared to uninfected astrocytes; also recorded: elevated levels of TK1 activity, as determined by uptake of ^3H-FLT, compared to uninfected cells

Reference: US20200197544A1, “JCV IMAGING METHODS AND COMPOSITIONS” (BIOGEN MA Inc., priority 2017, published 2020)
